Among the data in patent US20100056516A1 (priority 2006, published 2010) are IC50 values, retold here.

The target of experiment [1] is HIV integrase (Human immunodeficiency virus type 1 group M subtype B, UniProt P04585). Put plainly: integrase strand transfer assay (STA). It counts as biochemical. To be noted: integrase strand transfer; read-out: IC50 in the STA assay.
Experiment [2] concerns HXB2 virus. Put plainly: microbe, parasite or virus in culture. To be noted: Human immunodeficiency virus 1, HXB2, HeLaP4-2, read-out: antiviral IC50 (SCIA-B). It counts as cell-based, HIV. As for the experimental part:
An assay for measuring the inhibition of acute HIV infection with HeLa P4-2 cells in a single cycle infectivity assay (SCIA-A) was conducted in accordance with Joyce, J. G., et al., J. Biol. Chem., 2002, 277, 45811, Hazuda, D. J. et al., Science, 2000, 287, 646, and Kimpton, J. et al, J. Virol. 1992, 66, 2232. Infectious virus was produced by transfecting 293T cells with HIV proviral DNA in which the integrase gene was derived from a IIIB isolate and the remainder of the HIV genome was derived from the NL4-3 isolate.
This assay B for measuring the inhibition of acute HIV infection with HeLa P4-2 cells in a single cycle infectivity assay (SCIA-B) is essentially the same as Assay A described above, except that HXB2 virus is employed instead of the IIIb isolate.

Some results are limits rather than exact numbers.

A word on the IC50: it is the concentration needed to halve the response being measured. Regarding `O=c1c(-c2ccc(Cl)cc2)c(O)c2cccnc2n1O` [Example 37, 3-(4-Chlorophenyl)-1,4-dihydroxy-1,8-naphthyridin-2(1H)-one], the values for the IC50 in experiment [1] and in experiment [2] were less than 50 µM and less than 100 µM, respectively.

Regarding `O=c1c(-c2ccc(Br)cc2)c(O)c2cccnc2n1O` [Example 38, 3-(4-Bromophenyl)-1,4-dihydroxy-1,8-naphthyridin-2(1H)-one], the half-maximal inhibitory concentration (IC50) is less than 50 µM in experiment [1] and less than 100 µM in experiment [2].

`COc1ccccc1-c1c(O)c2cccnc2n(O)c1=O` [Example 39, 1,4-Dihydroxy-3-(2-methoxyphenyl)-1,8-naphthyridin-2(1H)-one]: the IC50 is less than 50 µM in experiment [1] and less than 100 µM in experiment [2].

In the case of `O=c1c(C2CCCC2)c(O)c2cccnc2n1O` [Example 41, 3-Cyclopentyl-1,4-dihydroxy-1,8-naphthyridin-2(1H)-one], the IC50 was less than 50 µM in experiment [1] and less than 100 µM in experiment [2].

With `CCCCc1c(O)c2cccnc2n(O)c1=O` [Example 42, 3-Butyl-1,4-dihydroxy-1,8-naphthyridin-2(1H)-one], the values for the IC50 in experiment [1] and in experiment [2] were less than 50 µM and less than 100 µM, respectively.

For the molecule `O=c1c(-c2cccc(Br)c2)c(O)c2cccnc2n1O` [Example 44, 3-(3-bromophenyl)-1,4-dihydroxy-1,8-naphthyridin-2(1H)-one], the IC50 was less than 50 µM in experiment [1] and less than 100 µM in experiment [2].

`N#Cc1ccc(-c2c(O)c3cccnc3n(O)c2=O)cc1` [Example 45, 4-(1,4-dihydroxy-2-oxo-1,2-dihydro-1,8-naphthyridin-3-yl)benzonitrile]: the IC50 is less than 50 µM in experiment [1] and less than 100 µM in experiment [2].

Turning to `O=c1c(-c2ccccc2O)c(O)c2cccnc2n1O` [Example 46, 1,4-dihydroxy-3-(2-hydroxyphenyl)-1,8-naphthyridin-2(1H)-one], the IC50 in experiment [1] was less than 50 µM; in experiment [2] it was less than 100 µM.

As to `O=c1c(-c2ccccc2)c(O)c2cc(Br)cnc2n1O` [Example 47, 6-Bromo-1,4-dihydroxy-3-phenyl-1,8-naphthyridin-2(1H)-one], the IC50 in experiment [1] was less than 50 µM; in experiment [2], less than 100 µM.

`CCOC(=O)c1c(O)c2cc(-c3ccccc3)cnc2n(O)c1=O` [Example 49, Ethyl 1,4-dihydroxy-2-oxo-6-phenyl-1,2-dihydro-1,8-naphthyridine-3-carboxylate]: the half-maximal inhibitory concentration (IC50) in experiment [1] was less than 50 µM; in experiment [2], less than 100 µM.

Regarding `NCc1cccc(-c2cnc3c(c2)c(O)c(-c2ccccc2)c(=O)n3O)c1` [Example 50, 6-[3-(Aminomethyl)phenyl]-1,4-dihydroxy-3-phenyl-1,8-naphthyridin-2(1H)-one], the IC50 is less than 50 µM in experiment [1] and less than 100 µM in experiment [2].

Consider `O=c1c(-c2ccccc2)c(O)c2cc(-c3ccccc3)cnc2n1O` [Example 51, 1,4-Dihydroxy-3,6-diphenyl-1,8-maphthyridin-2(1H)-one], for which the IC50 in experiment [1] is less than 50 µM; in experiment [2], less than 100 µM.

Regarding `O=c1c(-c2ccccc2)c(O)c2cc(Cc3ccccc3)cnc2n1O` [Example 52, 6-Benzyl-1,4-dihydroxy-3-phenyl-1,8-naphthyridin-2(1H)-one], the 50% inhibitory concentration (IC50) was less than 50 µM in experiment [1] and less than 100 µM in experiment [2].

In the case of `O=c1c(-c2ccccc2)c(O)c2cc(-c3ccccc3-n3cccn3)cnc2n1O` [Example 53, 1,4-Dihydroxy-3-phenyl-6-[2-(1H-pyrazol-1-yl)phenyl]-1,8-naphthyridin-2(1H)-one], the half-maximal inhibitory concentration (IC50) in experiment [1] was less than 50 µM; in experiment [2], less than 100 µM.

Regarding `O=c1c(-c2ccccc2)c(O)c2cc(-c3cccc(-c4ccccc4)c3)cnc2n1O` [Example 54, 6-Biphenyl-3-yl-1,4-dihydroxy-3-phenyl-1,8-naphthyridin-2(1H)-one], the figures for the IC50 in experiment [1] and in experiment [2] were less than 50 µM and less than 100 µM, respectively.

For `O=c1c(-c2ccccc2)c(O)c2cc(/C=C/c3ccccc3)cnc2n1O` [Example 55, 1,4-Dihydroxy-3-phenyl-6-[(E)-2-phenylvinyl]-1,8-naphthyridin-2(1H)-one], the IC50 was less than 50 µM in experiment [1] and less than 100 µM in experiment [2].

Regarding `O=c1c(-c2ccccc2)c(O)c2cc(-c3ccc4ccccc4c3)cnc2n1O` [Example 56, 1,4-Dihydroxy-6-(2-naphthyl)-3-phenyl-1,8-naphthyridin-2(1H)-one], the 50% inhibitory concentration (IC50) in experiment [1] is less than 50 µM; in experiment [2], less than 100 µM.

`CCOC(=O)c1c(O)c2cc(-c3cccnc3)cnc2n(O)c1=O` [Example 58, Ethyl 1,4-dihydroxy-2-oxo-6-pyridin-3-yl-1,2-dihydro-1,8-naphthyridine-3-carboxylate]: the half-maximal inhibitory concentration (IC50) was less than 50 µM in experiment [1] and less than 100 µM in experiment [2].

Take `CCOC(=O)c1c(O)c2cc(-c3cccc(C#N)c3)cnc2n(O)c1=O` [Example 60, Ethyl 6-(3-cyanophenyl)-1,4-dihydroxy-2-oxo-1,2-dihydro-1,8-naphthyridine-3-carboxylate]: the IC50 in experiment [1] is less than 50 µM; in experiment [2] it was greater than 100 µM.

Consider `CCOC(=O)c1c(O)c2cc(-c3ccccc3OC)cnc2n(O)c1=O` [Example 61, Ethyl 1,4-dihydroxy-6-(2-methoxyphenyl)-2-oxo-1,2-dihydro-1,8-naphthyridine-3-carboxylate], for which the 50% inhibitory concentration (IC50) in experiment [1] is less than 50 µM; in experiment [2] it was less than 100 µM.

As for `CCOC(=O)c1c(O)c2cc(-c3cccc(OC)c3)cnc2n(O)c1=O` [Example 62, Ethyl 1,4-dihydroxy-6-(3-methoxyphenyl)-2-oxo-1,2-dihydro-1,8-naphthyridine-3-carboxylate], the half-inhibitory concentration (IC50) was less than 50 µM in experiment [1] and less than 100 µM in experiment [2].

As for `CCOC(=O)c1c(O)c2cc(Cc3ccccc3)cnc2n(O)c1=O` [Example 63, Ethyl 6-benzyl-1,4-dihydroxy-2-oxo-1,2-dihydro-1,8-naphthyridine-3-carboxylate], the IC50 in experiment [1] was less than 50 µM; in experiment [2] it was less than 100 µM.

For `CCOC(=O)c1c(O)c2cc(-c3cccc(-c4ccccc4)c3)cnc2n(O)c1=O` [Example 64, Ethyl 6-biphenyl-3-yl-1,4-dihydroxy-2-oxo-1,2-dihydro-1,8-naphthyridine-3-carboxylate], the results for the IC50 in experiment [1] and in experiment [2] were less than 50 µM and less than 100 µM, respectively.

Take `CCOC(=O)c1c(O)c2cc(-c3cc(C)cc(C)c3)cnc2n(O)c1=O` [Example 65, Ethyl 6-(3,5-dimethylphenyl)-1,4-dihydroxy-2-oxo-1,2-dihydro-1,8-napthyridine-3-carboxylate]: the IC50 was less than 50 µM in experiment [1] and less than 100 µM in experiment [2].

In the case of `O=c1c(Cc2ccccc2)c(O)c2cc(-c3ccccc3)cnc2n1O` [Example 67, 3-Benzyl-1,4-dihydroxy-6-phenyl-1,8-naphthyridin-2(1H)-one], the IC50 was less than 50 µM in experiment [1] and less than 100 µM in experiment [2].

For the molecule `Nc1cccc(-c2cnc3c(c2)c(O)cc(=O)n3O)c1` [Example 68, 6-(3-Aminophenyl)-1,4-dihydroxy-1,8-naphthyridin-2(1H)-one], the concentration for half-maximal inhibition (IC50) was less than 50 µM in experiment [1] and less than 100 µM in experiment [2].

For the molecule `CS(=O)(=O)Nc1cccc(-c2cnc3c(c2)c(O)cc(=O)n3O)c1` [Example 69, N-[3-(5,8-Dihydroxy-7-oxo-7,8-dihydro-1,8-naphthyridin-3-yl)phenyl]methane-sulfonamide], the concentration for half-maximal inhibition (IC50) in experiment [1] is less than 50 µM; in experiment [2], less than 100 µM.

For `CCOC(=O)c1c(O)c2cc(C(C)=O)cnc2n(O)c1=O` [Example 70, ethyl 6-acetyl-1,4-dihydroxy-2-oxo-1,2-dihydro-1,8-naphthyridine-3-carboxylate], the 50% inhibitory concentration (IC50) in experiment [1] was less than 50 µM; in experiment [2], less than 100 µM.

As to `CC(=O)c1cnc2c(c1)c(O)c(-c1ccccc1)c(=O)n2O` [Example 71, 6-acetyl-1,4-dihydroxy-3-phenyl-1,8-naphthyridin-2(1H)-one], the results for the IC50 in experiment [1] and in experiment [2] were less than 50 µM and less than 100 µM, respectively.

On to `O=c1c(Br)c(O)c2cc(-c3ccncc3)cnc2n1O` [Example 72, 3-Bromo-1,4-dihydroxy-6-pyridin-4-yl-1,8-naphthyridin-2(1H)-one], for which the IC50 in experiment [1] is less than 50 µM; in experiment [2], less than 100 µM.

`CCc1cnc2c(c1)c(O)c(-c1ccccc1)c(=O)n2O` [Example 73, 6-Ethyl-1,4-dihydroxy-3-phenyl-1,8-naphthyridin-2(1H)-one]: the 50% inhibitory concentration (IC50) in experiment [1] is less than 50 µM; in experiment [2] it was less than 100 µM.

For the molecule `CC(Br)Cc1cnc2c(c1)c(O)c(-c1ccccc1)c(=O)n2O` (stereo not shown) [Example 74, 6-(2-Bromopropyl)-1,4-dihydroxy-3-phenyl-1,8-naphthyridin-2(1H)-one], the IC50 in experiment [1] was less than 50 µM; in experiment [2], less than 100 µM.

For `O=c1c(-c2ccccc2)c(O)c2cc(-c3cccs3)cnc2n1O` [Example 75, 6-(thien-2-yl)-1,4-dihydroxy-3-phenyl-1,8-napthyridin-2(1H)-one], the IC50 in experiment [1] is less than 50 µM; in experiment [2], less than 100 µM.

In the case of `CC(NCc1cccc(Cl)c1)c1cnc2c(c1)c(O)c(-c1ccccc1)c(=O)n2O` (stereo not shown) [Example 76, 6-{1-[(3-Chlorobenzyl)amino]ethyl}-1,4-dihydroxy-3-phenyl-1,8-napthyridin-2(1H)-one], the results for the IC50 in experiment [1] and in experiment [2] were less than 50 µM and less than 100 µM, respectively.

Turning to `CCOC(=O)c1c(O)c2cc(C(=O)NCc3ccccc3)cnc2n(O)c1=O` [Example 77, Ethyl 6-[(benzylamino)carbonyl]-1,4-dihydroxy-2-oxo-1,2-dihydro-1,8-naphthyridine-3-carboxylate], the results for the half-inhibitory concentration (IC50) in experiment [1] and in experiment [2] were less than 50 µM and less than 100 µM, respectively.
